Entries after “also recorded” stand apart in the source; their conditions may differ. Square brackets hold non-standard residues; d marks the D form. Ends that are not written are not given here. Peptide text beside a SMILES is read from it.
Tests used:
[1] = mouse, in vivo
[2] = pig
[3] = test system: SEB-mediated induction of IL-2, IFN-γ and/or TNF-β gene expression in PBMC; type: cell-based, human
[4] = test system: expression of IL-2 and IFN-γ genes in PBMC; type: cell-based, human
[5] = test system: PBMC
[6] = test system: induction of IL-2 / IFN-γ mRNA by TSST-1 in PBMC; type: cell-based, human
[7] = test system: SEB-induced lethal shock; set-up: species or system BALB/c mice; settings: mouse, in vivo

CC(C)C[C@H](NC(=O)[C@H](CCC(=O)O)NC(=O)[C@H](CCC(N)=O)NC(=O)[C@@H](NC(=O)[C@@H](NC(=O)[C@H](C)NC(=O)[C@H](CCCCN)NC(=O)[C@H](CCCCN)NC(=O)[C@H](CCCCN)NC(=O)[C@H](CC(N)=O)NC(=O)[C@H](Cc1ccc(O)cc1)NC(=O)[C@@H](C)N)[C@@H](C)O)C(C)C)C(=O)N[C@@H](CC(=O)O)C(=O)N[C@H](C)C(=O)O [p12A, daY N K K K A T V Q E L Dda] (H-[dA]YNKKKATVQELD[dA]-OH)
side effects in peptide-treated, SEB-challenged mice [1]: No side effects | viability and side effects of mice exposed to peptide alone [1]: stayed fully viable and showed no detectable side effects

CC(C)C[C@H](NC(=O)[C@H](CCC(=O)O)NC(=O)[C@H](CCC(N)=O)NC(=O)[C@@H](NC(=O)[C@@H](NC(=O)[C@H](C)NC(=O)[C@H](CCCCN)NC(=O)[C@H](CCCCN)NC(=O)[C@H](CCCCN)NC(=O)[C@H](CC(N)=O)NC(=O)[C@H](Cc1ccc(O)cc1)NC(=O)[C@H](CCC(N)=O)NC(=O)[C@@H](NC(=O)[C@@H](C)N)C(C)C)[C@@H](C)O)C(C)C)C(=O)N[C@@H](CC(=O)O)C(=O)N[C@H](C)C(=O)O [p14A, daV Q Y N K K K A T V Q E L Dda] (H-[dA]VQYNKKKATVQELD[dA]-OH)
toxin agonist activity in vivo [2]: without any detectable toxin agonist activity in vivo | symptoms of incapacitation in pigs that received peptide alone ([2]; in vivo): failed to develop any symptoms of incapacitation | viability and side effects of mice exposed to peptide alone [1]: stayed fully viable and showed no detectable side effects

C Y N K K K A T V Q E L D C [Cys-p12(150–161)]
SEB antagonist activity, IL-2 and IFN-γ mRNA at 8 hrs [3]: significant SEB antagonist activity, even upon tenfold dilution | SEB antagonist activity, overall comparison [3]: more powerful as antagonist than p12(150–161)

IDQFLYFDLIYSIKDTKLGNY (IDQFLYFDLIYSIKDTKLGNY) [pSEB(41–61)]
SEB agonist activity, induction of mRNA for IL-2 or IFN-γ by RNase protection [4]: failed to show SEB agonist activity | block of induction of IL-2 and IFN-γ mRNA by SEB [3]: failed to block induction of IL-2 and IFN-γ mRNA by SEB

K K K A T V Q E L D (KKKATVQELD) [p10(152–161)]
antagonist activity, SEB-mediated IL-2 mRNA induction [3]: pronounced antagonist activity; also recorded: lower, yet still significant, antagonist activity | inhibition of IL-2 gene induction by SEB [3]: up to 8 fold

K K K V T A Q E L D (KKKVTAQELD) [pSEB(152–161)]
antagonist activity, SEB-mediated IL-2 mRNA induction [3]: pronounced antagonist activity

TNKKKVTAQELD [pSEB(150–161), T N K K K V T A Q E L D]
viability of PBMC cultured with peptide [5]: undiminished viability

YNKKKATVQELDYNKKKATVQELI (YNKKKATVQELDYNKKKATVQELD; listed as Staphylococcus aureus) [Dimer]
inhibition of induction of IL-2 mRNA by TSST-1 [6]: inhibited | SEB antagonist activity, overall comparison [3]: more powerful as antagonist than p12(150–161) | inhibition of IFN-γ mRNA induction by SEB, peptide diluted 100-fold [3]: detectable inhibition | inhibition of SEB-induced IL-2 and IFN-γ gene expression [3]: effective as antagonist | inhibition of induction of IL-2 and IFN-γ mRNA by SEB [3]: strongly inhibitory | inhibition of induction of IL-2 mRNA by SEB [3]: inhibited

YNKKKATVQELDYNKKKATVQELIYNKKKATVQELD (YNKKKATVQELDYNKKKATVQELIYNKKKATVQELD) [Trimer]
inhibition of induction of IL-2 and IFN-γ mRNA by SEB [3]: strongly inhibitory

YNKKKATVQELD [p12(150–161), Y N K K K A T V Q E L D]
viability of PBMC cultured with peptide [5]: undiminished viability

lpV Q Y N K K K A T V Q E L D [p14A-LP]
immunized mice that survived lethal SEB challenge [7]: Ten out of 11 | immunized survivors that survived rechallenge with a double dose of SEB [7]: 7 out of the 10
